{
  "source": "paper PMC5820187",
  "about": "(Archives of toxicology, 2017)",
  "key": {"embryonic zebrafish [1]": {"test_system": "embryonic zebrafish", "settings": "for Bioactivity across the developmental toxicity assays (morphology, EPR, LPR): exposure 6-120 hpf"}, "CYP1A protein expression": {"test_system": "CYP1A protein expression", "settings": "zebrafish, in vivo"}, "embryonic zebrafish [2]": {"test_system": "embryonic zebrafish", "test": "Embryonic photomotor response", "format": "in vivo", "settings": "24 hpf embryos; for EPR effect: any phase"}, "zebrafish larvae": {"test_system": "zebrafish larvae", "test": "Larval photomotor response", "format": "in vivo", "settings": "120 hpf larvae; for LPR effect: at least one phase (light or dark)"}, "[3]": {"settings": "static exposure 6-120 hpf, 0.1-50 μM, assessed at 24 and 120 hpf"}, "[4]": {"settings": "hierarchical clustering of lowest effect levels, Fig 2"}},
  "note": "Where two headings read alike, the source gives them in different places.",
  "data": [
    {"smiles": "O=C1C=Cc2ccccc2C1=O", "note": "[1,2-naphthoquinone]", "values": [
      {"measurement": "Mortality and morphological effects (developmental toxicity endpoints, LELs)", "setting": "embryonic zebrafish [1]; [3]", "result": "effects on mortality or morphology"}
    ]},
    {"smiles": "O=C1C=CC(=O)c2cc3ccccc3cc21", "note": "[1,4-anthraquinone]", "values": [
      {"measurement": "Bioactivity across the developmental toxicity assays (morphology, EPR, LPR)", "setting": "embryonic zebrafish [1]; 0.1-50 μM", "result": "most toxic derivative tested"},
      {"measurement": "Concentrations with increased mortality", "setting": "embryonic zebrafish [1]; static exposure 6-120 hpf", "result": "below 10 μM"}
    ]},
    {"smiles": "Oc1cccc2c(O)cccc12", "note": "[1,5-dihydroxynaphthalene]", "values": [
      {"measurement": "Mortality and morphological effects (developmental toxicity endpoints, LELs)", "setting": "embryonic zebrafish [1]; [3]", "result": "effects on mortality or morphology"}
    ]},
    {"smiles": "Cc1cccc2c(C)cccc12", "note": "[1,5-dimethylnaphthalene]", "values": [
      {"measurement": "Tissue Type expressing CYP1A", "setting": "CYP1A protein expression", "result": "Liver"}
    ]},
    {"smiles": "Oc1cccc2ccccc12", "note": "[1-hydroxynaphthalene]", "values": [
      {"measurement": "Mortality and morphological effects (developmental toxicity endpoints, LELs)", "setting": "embryonic zebrafish [1]; zebrafish, in vivo", "result": "effects on mortality or morphology"}
    ]},
    {"smiles": "Oc1cc2ccccc2cc1O", "note": "[2,3-dihydroxynaphthalene]", "values": [
      {"measurement": "EPR effect", "setting": "embryonic zebrafish [2]", "result": "significant effects on EPR"}
    ]},
    {"smiles": "Cc1ccc2cc(C)ccc2c1", "note": "[2,6-dimethylnaphthalene]", "values": [
      {"measurement": "LPR effect", "setting": "zebrafish larvae", "result": "All derivatives except 2,6-dimethylnaphthalene had LPR effects in at least one phase"}
    ]},
    {"smiles": "CCc1ccc2c(c1)C(=O)c1ccccc1C2=O", "note": "[2-ethylanthraquinone]", "values": [
      {"measurement": "Tissue Type expressing CYP1A", "setting": "CYP1A protein expression", "result": "Yolk"},
      {"measurement": "Mortality and morphological effects (developmental toxicity endpoints, LELs)", "setting": "embryonic zebrafish [1]; zebrafish, in vivo", "result": "increased mortality"},
      {"measurement": "Number of developmental endpoints affected", "setting": "embryonic zebrafish [1]; zebrafish, in vivo", "result": 15},
      {"measurement": "LPR effect", "setting": "zebrafish larvae", "result": "every derivative except 2-nitroanthracene and 2-ethylanthraquinone affected LPR behavior"}
    ]},
    {"smiles": "Oc1ccc2ccccc2c1", "note": "[2-hydroxynaphthalene]", "values": [
      {"measurement": "Mortality and morphological effects (developmental toxicity endpoints, LELs)", "setting": "embryonic zebrafish [1]; zebrafish, in vivo", "result": "effects on mortality or morphology"}
    ]},
    {"smiles": "O=[N+]([O-])c1ccc2cc3ccccc3cc2c1", "note": "[2-nitroanthracene]", "values": [
      {"measurement": "LPR effect", "setting": "zebrafish larvae", "result": "every derivative except 2-nitroanthracene and 2-ethylanthraquinone affected LPR behavior"}
    ]},
    {"smiles": "O=[N+]([O-])c1cc2ccc3cccc4ccc(c1)c2c34", "note": "[2-nitropyrene]", "values": [
      {"measurement": "Bioactivity across the developmental toxicity assays (morphology, EPR, LPR)", "setting": "embryonic zebrafish [1]; 0.1-50 μM", "result": "only the cumulative ‘any’ endpoints"}
    ]},
    {"smiles": "Cc1ccc2ccc3ccc(C)cc3c2c1", "note": "[3,6-dimethylphenanthrene]", "values": [
      {"measurement": "EPR effect", "setting": "embryonic zebrafish [2]", "result": "hypoactivity"},
      {"measurement": "LPR effect in the light phase", "setting": "zebrafish larvae", "result": "effects on LPR in the light"}
    ]},
    {"smiles": "c1ccc2cc3ccccc3cc2c1", "note": "[Anthracene]", "values": [
      {"measurement": "Mortality and morphological effects (developmental toxicity endpoints, LELs)", "setting": "embryonic zebrafish [1]; [3]", "result": "no observed morphology effects"}
    ]},
    {"smiles": "O=C1c2ccccc2C(=O)c2ccccc21", "note": "[Anthraquinone]", "values": [
      {"measurement": "Mortality and morphological effects (developmental toxicity endpoints, LELs)", "setting": "embryonic zebrafish [1]; [3]", "result": "did not cause morphological effects"}
    ]},
    {"smiles": "c1ccc2cc3c4ccccc4c4ccccc4c3cc2c1", "note": "[Dibenz[a,c]anthracene]", "values": [
      {"measurement": "Developmental toxicity profile group", "setting": "embryonic zebrafish [1]; [4]", "result": "Groups 1 and 2"}
    ]},
    {"smiles": "c1ccc2c(c1)cc1ccc3c4ccccc4cc4ccc2c1c43", "note": "[Dibenzo[a,h]pyrene]", "values": [
      {"measurement": "EPR effect in the Refractory period", "setting": "embryonic zebrafish [2]", "result": "hypoactive response"}
    ]},
    {"smiles": "c1ccc2c(c1)cc1ccc3cc4ccccc4c4ccc2c1c34", "note": "[Dibenzo[a,i]pyrene]", "values": [
      {"measurement": "Mortality and morphological effects (developmental toxicity endpoints, LELs)", "setting": "embryonic zebrafish [1]; [3]", "result": "no observed morphology effects"}
    ]},
    {"smiles": "c1ccc2c(c1)cc1ccc3cccc4c5ccccc5c2c1c34", "note": "[Dibenzo[a,l]pyrene]", "values": [
      {"measurement": "Developmental toxicity profile group", "setting": "embryonic zebrafish [1]; [4]", "result": "Groups 1 and 2"}
    ]},
    {"smiles": "c1ccc2c(c1)oc1ccccc12", "note": "[Dibenzofuran]", "values": [
      {"measurement": "Tissue Type expressing CYP1A", "setting": "CYP1A protein expression", "result": "Vasculature"}
    ]},
    {"smiles": "c1ccc2c(c1)-c1cccc3cccc-2c13", "note": "[Fluoranthene]", "values": [
      {"measurement": "Tissue Type expressing CYP1A", "setting": "CYP1A protein expression", "result": "Vasculature, Yolk"}
    ]},
    {"smiles": "c1ccc2[nH]ccc2c1", "note": "[Indole]", "values": [
      {"measurement": "Tissue Type expressing CYP1A", "setting": "CYP1A protein expression", "result": "Yolk"}
    ]},
    {"smiles": "c1ccc2ccccc2c1", "note": "[Naphthalene]", "values": [
      {"measurement": "LPR effect in the dark phase", "setting": "zebrafish larvae", "result": "hyperactivity"},
      {"measurement": "LPR effect in the light phase", "setting": "zebrafish larvae", "result": "hyperactivity"}
    ]},
    {"smiles": "c1ccc2c(c1)ccc1ccccc12", "note": "[Phenanthrene]", "values": [
      {"measurement": "EPR effect", "setting": "embryonic zebrafish [2]", "result": "did not induce mortality or morphology changes, EPR effects"},
      {"measurement": "LPR effect in the light phase", "setting": "zebrafish larvae", "result": "hyperactivity"}
    ]},
    {"smiles": "c1cc2ccc3cccc4ccc(c1)c2c34", "note": "[Pyrene]", "values": [
      {"measurement": "LPR effect", "setting": "zebrafish larvae", "result": "significant LPR effects"}
    ]},
    {"smiles": "c1ccc2ncccc2c1", "note": "[Quinoline]", "values": [
      {"measurement": "EPR effect", "setting": "embryonic zebrafish [2]", "result": "only had an observed effect on EPR"},
      {"measurement": "Developmental toxicity profile group", "setting": "embryonic zebrafish [1]; zebrafish, in vivo", "result": "Group 5"}
    ]},
    {"smiles": "Cc1cccc2c1ccc1cc(C(C)C)ccc12", "note": "[Retene]", "values": [
      {"measurement": "Tissue Type expressing CYP1A", "setting": "CYP1A protein expression", "result": "Vasculature"}
    ]}
  ]
}
